The molecules below were run against T1, USP7 (Homo sapiens, UniProt Q93009) (assay: USP7 Assay A (Ubitquin-Rhodamine 110 Assay)). Conditions: USP7 activity in USP7 assay A and B (table does not say which assay per compound); read-out: USP7_IC50.
T1 construct: USP7, construct USP7 (208-1102) 6*His, Viva Biotech; 6xHis (C); purchased Viva Biotech
Format: biochemical
Summary of the method: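 Ub-Rh110 cleavage in 20 mM Tris-HCl pH 8.0 with 1 mM GSH, 0.03% BGG, 0.01% Triton X-100; compound preincubated with enzyme 30 min before substrate.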

T1 sequence (Q93009 208-1102): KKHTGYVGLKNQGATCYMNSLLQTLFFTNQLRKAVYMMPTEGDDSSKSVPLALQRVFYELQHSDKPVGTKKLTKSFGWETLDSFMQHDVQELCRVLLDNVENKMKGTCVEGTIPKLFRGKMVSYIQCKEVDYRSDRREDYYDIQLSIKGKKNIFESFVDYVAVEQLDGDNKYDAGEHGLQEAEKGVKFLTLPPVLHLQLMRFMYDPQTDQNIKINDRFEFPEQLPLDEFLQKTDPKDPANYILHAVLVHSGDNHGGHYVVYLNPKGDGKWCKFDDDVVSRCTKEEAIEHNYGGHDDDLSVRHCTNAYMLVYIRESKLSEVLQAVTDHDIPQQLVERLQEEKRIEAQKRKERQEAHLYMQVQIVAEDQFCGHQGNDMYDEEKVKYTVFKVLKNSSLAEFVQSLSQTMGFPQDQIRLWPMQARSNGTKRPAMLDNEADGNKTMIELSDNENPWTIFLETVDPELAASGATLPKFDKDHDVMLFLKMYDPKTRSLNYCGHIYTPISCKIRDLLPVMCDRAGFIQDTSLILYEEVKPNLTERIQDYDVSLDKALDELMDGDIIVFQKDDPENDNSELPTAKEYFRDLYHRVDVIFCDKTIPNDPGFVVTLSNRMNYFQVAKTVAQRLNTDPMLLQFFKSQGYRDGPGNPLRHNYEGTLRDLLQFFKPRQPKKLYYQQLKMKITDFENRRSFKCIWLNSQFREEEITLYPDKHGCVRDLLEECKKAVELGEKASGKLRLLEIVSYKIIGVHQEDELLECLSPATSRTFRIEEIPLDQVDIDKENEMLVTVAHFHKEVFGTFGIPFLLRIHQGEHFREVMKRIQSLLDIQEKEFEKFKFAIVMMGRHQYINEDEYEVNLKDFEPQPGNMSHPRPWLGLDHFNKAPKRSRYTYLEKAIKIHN

First: O=C(C1CC(Nc2ccc(F)cn2)C1)N1CCC(O)(Cn2cnc3c(cnn3-c3ccc(F)cc3)c2=O)CC1 (stereo not shown) [Compound I-1032]
Second: O=C(C1CC(Nc2ccccn2)C1)N1CCC(O)(Cn2cnc3c(cnn3-c3ccc(F)cc3)c2=O)CC1 (stereo not shown) [Compound I-1034]
The IC50 of the first is lower: 200 to 1000 nM for the first, 1000 to 10000 nM for the second. The first is the more potent here.

First: O=C(C1CC(Nc2ccc(F)cn2)C1)N1CCC(O)(Cn2cnc3c(cnn3-c3ccc(F)cc3)c2=O)CC1 (stereo not shown) [Compound I-1033]
Second: O=C(C1CC(Nc2ccccn2)C1)N1CCC(O)(Cn2cnc3c(cnn3-c3ccc(F)cc3)c2=O)CC1 (stereo not shown) [Compound I-1035]
The IC50 of the first is higher: 1000 to 10000 nM for the first, 200 to 1000 nM for the second.

First: O=C(C[C@H](C(F)F)n1ccc(F)n1)N1CCC(O)(Cn2cnc3c(cnn3-c3ccc(C(F)(F)F)cc3)c2=O)CC1 [Compound I-1036]
Second: O=C(C[C@@H](C(F)F)n1ccc(F)n1)N1CCC(O)(Cn2cnc3c(cnn3-c3ccc(C(F)(F)F)cc3)c2=O)CC1 [Compound I-1037]
The IC50 of the first is lower: under 200 nM for the first, 1000 to 10000 nM for the second. The first is the more potent here.

Compared with `O=C(C1CCC(Oc2ccccn2)CC1)N1CCC(O)(Cn2cnc3c(ccn3-c3ccc(F)cc3)c2=O)CC1` (stereo not shown) [Compound I-1038], `Cn1ccc(OC2CCC(C(=O)N3CCC(O)(Cn4cnc5c(ccn5-c5ccc(F)cc5)c4=O)CC3)CC2)n1` (stereo not shown) [Compound I-1067] is higher in IC50: under 200 nM for the first, 200 to 1000 nM for the second. The first is the more potent here.

`O=c1c2cnn(-c3ccccc3)c2ncn1CC1(O)CCN(C(=O)[C@H]2CC[C@H](Nc3cccnc3F)CC2)CC1` [Compound I-1039b, Anti-5-((1-(4-((2-fluoropyridin-3-yl)amino)cyclohexane-1-carbonyl)-4-hydroxypiperidin-4-yl)methyl)-1-phenyl-1,5-dihydro-4H-pyrazolo[3,4-d]pyrimidin-4-one] and `O=C(C1CCC(Oc2cnccn2)CC1)N1CCC(O)(Cn2cnc3c(cnn3-c3ccc(F)cc3)c2=O)CC1` (stereo not shown) [Compound I-1113] cannot be ordered by IC50: under 200 nM for the first, under 200 nM for the second.

Compared with `Cn1ccc(NC2CCC(C(=O)N3CCC(O)(Cn4cnc5c(ccn5-c5ccc(F)cc5)c4=O)CC3)CC2)n1` (stereo not shown) [Compound I-1040], `O=C(C1CCC(Oc2ccccn2)CC1)N1CCC(O)(Cn2cnc3c(ccn3-c3ccc(F)cc3)c2=O)CC1` (stereo not shown) [Compound I-1124] is lower in IC50: 1000 to 10000 nM for the first, under 200 nM for the second.

`Cn1ccc(NC2CCC(C(=O)N3CCC(O)(Cn4cnc5c(ccn5-c5ccc(F)cc5)c4=O)CC3)CC2)n1` (stereo not shown) [Compound I-1041] and `Cn1cc(C(=O)N2CCC(O)(Cn3cnc4c(ccn4-c4ccc(F)cc4)c3=O)CC2)cn1` [Compound I-1078] fall in the same range of IC50: 200 to 1000 nM for the first, 200 to 1000 nM for the second.

First: CC1(C(=O)N2CCC(O)(Cn3cnc4c(cnn4-c4cccc(-n5ccc(F)n5)c4)c3=O)CC2)CC1 [Compound I-1042]
Second: CC1(C(=O)N2CCC(O)(Cn3cnc4c(cnn4-c4ccc(-n5cc(Cl)cn5)cc4)c3=O)CC2)CC1 [Compound I-1045]
The IC50 of the first is higher: 200 to 1000 nM for the first, under 200 nM for the second. The second is the more potent here.

Compared with `CC1(C(=O)N2CCC(O)(Cn3cnc4c(cnn4-c4ccc(-n5cc(C(F)(F)F)cn5)cc4)c3=O)CC2)CC1` [Compound I-1043], `CC1(C(=O)N2CCC(O)(Cn3cnc4c(cnn4-c4ccc(OCC5CC(F)(F)C5)cc4)c3=O)CC2)CC1` [Compound I-1133] is lower in IC50: 200 to 1000 nM for the first, under 200 nM for the second. The second is the more potent here.

First: CC1(C(=O)N2CCC(O)(Cn3cnc4c(cnn4-c4cccc(OCC5CC(F)(F)C5)c4)c3=O)CC2)CC1 [Compound I-1046, 1-(3-((3,3-difluorocyclobutyl)methoxy)phenyl)-5-((4-hydroxy-1-(1-methylcyclopropane-1-carbonyl)piperidin-4-yl)methyl)-1,5-dihydro-4H-pyrazolo[3,4-d]pyrimidin-4-one]
Second: CC1(C(=O)N2CCC(O)(Cn3cnc4c(cnn4-c4cccc(OC5CCC(F)(F)CC5)c4)c3=O)CC2)CC1 [Compound I-1047]
The IC50 of the first is higher: 200 to 1000 nM for the first, under 200 nM for the second.

First: C[C@@H](CC(=O)N1CCC(O)(Cn2cnc3c(cnn3-c3ccc(N4CC[C@@](C)(O)C4)cc3)c2=O)CC1)n1cccn1 [Compound I-1052]
Second: O=C(C[C@H](C(F)F)n1cccn1)N1CCC(O)(Cn2cnc3c(cnn3-c3ccc(Cl)cc3)c2=O)CC1 [Compound I-1131]
The IC50 of the first is lower: 200 to 1000 nM for the first, 1000 to 10000 nM for the second. The first is the more potent here.

`O=C(C1CCC(NC2CC2)CC1)N1CCC(O)(Cn2cnc3c(cnn3-c3ccc(F)cc3)c2=O)CC1` (stereo not shown) [Compound I-1072] and `O=C(NC1CCC(C(=O)N2CCC(O)(Cn3cnc4c(cnn4-c4ccc(F)cc4)c3=O)CC2)CC1)C1CC1` (stereo not shown) [Compound I-1075] fall in the same range of IC50: 1000 to 10000 nM for the first, 1000 to 10000 nM for the second.

`Cc1ncc(C(=O)N2CCC(O)(Cn3cnc4c(ccn4-c4ccc(F)cc4)c3=O)CC2)o1` [Compound I-1077] and `O=C(c1cnn(C2CC2)c1)N1CCC(O)(Cn2cnc3c(ccn3-c3ccc(F)cc3)c2=O)CC1` [Compound I-1079] fall in the same range of IC50: 200 to 1000 nM for the first, 200 to 1000 nM for the second.

`CN1CCN(c2ncc(C(=O)N3CCC(O)(Cn4cnc5c(cnn5-c5ccc(Cl)cc5)c4=O)CC3)o2)CC1` [Compound I-1085] and `O=C(c1nnc(C2CC2)o1)N1CCC(O)(Cn2cnc3c(cnn3-c3ccc(Cl)cc3)c2=O)CC1` [Compound I-1091] fall in the same range of IC50: 1000 to 10000 nM for the first, 1000 to 10000 nM for the second.

`O=C(c1cnc(Oc2ccccn2)o1)N1CCC(O)(Cn2cnc3c(cnn3-c3ccc(Cl)cc3)c2=O)CC1` [Compound I-1086] and `Cc1cnc(-c2ccc(C(=O)N3CCC(O)(Cn4cnc5c(cnn5-c5ccc(Cl)cc5)c4=O)CC3)cc2)n1C` [Compound I-1099] fall in the same range of IC50: 1000 to 10000 nM for the first, 1000 to 10000 nM for the second.

`O=C(c1ccc(-n2cnnn2)cc1)N1CCC(O)(Cn2cnc3c(cnn3-c3ccc(Cl)cc3)c2=O)CC1` [Compound I-1087] and `O=C(c1ccc(-n2cncn2)cc1)N1CCC(O)(Cn2cnc3c(cnn3-c3ccc(Cl)cc3)c2=O)CC1` [Compound I-1090] fall in the same range of IC50: 200 to 1000 nM for the first, 200 to 1000 nM for the second.

`O=C(c1ccc(-n2ccnc2)cc1)N1CCC(O)(Cn2cnc3c(cnn3-c3ccc(Cl)cc3)c2=O)CC1` [Compound I-1088] and `Cc1nnnn1-c1ccc(C(=O)N2CCC(O)(Cn3cnc4c(cnn4-c4ccc(Cl)cc4)c3=O)CC2)cc1` [Compound I-1089] fall in the same range of IC50: 200 to 1000 nM for the first, 200 to 1000 nM for the second.

`O=C(c1cn(C2CC2)cn1)N1CCC(O)(Cn2cnc3c(cnn3-c3ccc(Cl)cc3)c2=O)CC1` [Compound I-1092] and `O=C(c1ccn(C2CC2)n1)N1CCC(O)(Cn2cnc3c(cnn3-c3ccc(Cl)cc3)c2=O)CC1` [Compound I-1093] fall in the same range of IC50: 1000 to 10000 nM for the first, 1000 to 10000 nM for the second.

First: O=C(c1cnn(C2CC2)c1)N1CCC(O)(Cn2cnc3c(cnn3-c3ccc(Cl)cc3)c2=O)CC1 [Compound I-1095]
Second: CN1CCC(Oc2ccc(C(=O)N3CCC(O)(Cn4cnc5c(cnn5-c5ccc(Cl)cc5)c4=O)CC3)cc2)CC1 [Compound I-1096]
The IC50 of the first is lower: 200 to 1000 nM for the first, 1000 to 10000 nM for the second.

Compared with `Cc1ncc(-c2ccc(C(=O)N3CCC(O)(Cn4cnc5c(cnn5-c5ccc(Cl)cc5)c4=O)CC3)cc2)n1C` [Compound I-1101], `Cc1snc(Cc2ccccc2)c1C(=O)N1CCC(O)(Cn2cnc3c(cnn3-c3ccc(F)cc3)c2=O)CC1` [Compound I-1110] is lower in IC50: 1000 to 10000 nM for the first, under 200 nM for the second. The second is the more potent here.

First: O=C(c1ocnc1Cc1ccccc1)N1CCC(O)(Cn2cnc3c(cnn3-c3ccccc3)c2=O)CC1 [Compound I-1108]
Second: O=C(C[C@@H](C(F)F)n1cccn1)N1CCC(O)(Cn2cnc3c(cnn3-c3ccc(Cl)cc3)c2=O)CC1 [Compound I-1132]
The IC50 of the first is higher: over 10000 nM for the first, 200 to 1000 nM for the second.

`O=C(C1CCC(OC(F)F)CC1)N1CCC(O)(Cn2cnc3c(cnn3-c3ccc(F)cc3)c2=O)CC1` (stereo not shown) [Compound I-1112] and `Cn1nccc1OC1CCC(C(=O)N2CCC(O)(Cn3cnc4c(cnn4-c4ccc(F)cc4)c3=O)CC2)CC1` (stereo not shown) [Compound I-1114] fall in the same range of IC50: 1000 to 10000 nM for the first, 1000 to 10000 nM for the second.

`CC1(COc2ccc(-n3ncc4c(=O)n(CC5(O)CCN(C(=O)C6(C)CC6)CC5)cnc43)cc2)COC1` [Compound I-1118] and `CC1(C(=O)N2CCC(O)(Cn3cnc4c(cnn4-c4ccc(OCC5(F)CCC5)cc4)c3=O)CC2)CC1` [Compound I-1119] cannot be ordered by IC50: under 200 nM for the first, under 200 nM for the second.

First: O=C(C[C@H](C(F)F)n1ccc(F)n1)N1CCC(O)(Cn2cnc3c(ccn3-c3ccc(F)cc3)c2=O)CC1 [Compound I-1125]
Second: O=C(C[C@@H](C(F)F)n1ccc(F)n1)N1CCC(O)(Cn2cnc3c(ccn3-c3ccc(F)cc3)c2=O)CC1 [Compound I-1126]
The IC50 of the first is higher: 200 to 1000 nM for the first, under 200 nM for the second.

In the case of `Cc1ncc(C(=O)N2CCC(O)(Cn3cnc4c(cnn4-c4ccc(OC5CCC(F)(F)CC5)cc4)c3=O)CC2)o1` [Compound I-1134], the IC50 is reported as 200 to 1000 nM.

Same assay, conditions: USP7 assay A and B (table does not say which assay per compound); read-out: USP7_IC50

`Cc1ccc(-n2ncc3c(=O)n(CC4(O)CCN(C(=O)c5ccc(OC(F)F)cc5)CC4)cnc32)cc1` [Compound I-1058] and `Cc1ccc(-n2ncc3c(=O)n(CC4(O)CCN(C(=O)c5ccc(Oc6ncccn6)cc5)CC4)cnc32)cc1` [Compound I-1063] fall in the same range of IC50: 200 to 1000 nM for the first, 200 to 1000 nM for the second.

Compared with `Cc1ccc(-n2ncc3c(=O)n(CC4(O)CCN(C(=O)C[C@H](C(F)F)n5cccn5)CC4)cnc32)cc1` [Compound I-1060], `Cc1ccc(-n2ncc3c(=O)n(CC4(O)CCN(C(=O)C[C@@H](C(F)F)n5cccn5)CC4)cnc32)cc1` [Compound I-1061] is higher in IC50: under 200 nM for the first, 1000 to 10000 nM for the second. The first is the more potent here.

`O=C(C1CC1)N1CCC(O)(Cn2cnc3c(cnn3-c3ccc(N4CCCc5ccccc54)cc3)c2=O)CC1` [Compound I-1082] and `O=C(c1cccc(CN2CCCC2)c1)N1CCC(O)(Cn2cnc3c(cnn3-c3ccc(Cl)cc3)c2=O)CC1` [Compound I-1127] fall in the same range of IC50: 1000 to 10000 nM for the first, 1000 to 10000 nM for the second.

`O=C(CC(c1ccccc1)C(F)F)N1CCC(O)(Cn2cnc3c(cnn3-c3ccccc3)c2=O)CC1` (stereo not shown) [Compound I-1102] and `O=C(C[C@@H](c1ccccc1)C(F)F)N1CCC(O)(Cn2cnc3c(cnn3-c3ccccc3)c2=O)CC1` [Compound I-1103] cannot be ordered by IC50: under 200 nM for the first, under 200 nM for the second.

First: O=C(C[C@H](c1ccccc1)C(F)F)N1CCC(O)(Cn2cnc3c(cnn3-c3ccccc3)c2=O)CC1 [Compound I-1104]
Second: O=C(c1ccc(-n2ccnn2)cc1)N1CCC(O)(Cn2cnc3c(cnn3-c3ccc(Cl)cc3)c2=O)CC1 [Compound I-1128]
The IC50 of the first is higher: 1000 to 10000 nM for the first, 200 to 1000 nM for the second. The second is the more potent here.

First: O=C(c1ccc(-n2nccn2)cc1)N1CCC(O)(Cn2cnc3c(cnn3-c3ccc(Cl)cc3)c2=O)CC1 [Compound I-1129]
Second: O=C(c1cnc(C2CC2)o1)N1CCC(O)(Cn2cnc3c(cnn3-c3ccc(Cl)cc3)c2=O)CC1 [Compound I-1130]
The IC50 of the first is higher: 1000 to 10000 nM for the first, 200 to 1000 nM for the second. The second is the more potent here.

Reference: US9902728B2, “Pyrrolo and pyrazolopyrimidines as ubiquitin-specific protease 7 inhibitors” (Forma Therapeutics, Inc., priority 2014, dated 2018)
